# What was measured:
# Assay in all cases: radiometric filter-binding kinase assay
# [1] = target: TAOK1 (human) (UniProt Q7L7X3)
# [2] = target: YES1 (human) (UniProt P07947)
# [3] = target: BTK (human) (UniProt Q06187)
# [4] = target: MAPKAPK5 (human) (UniProt Q8IW41)
# [5] = target: DYRK3 (human) (UniProt O43781)
# [6] = target: EPHB2 (human) (UniProt P29323)
# [7] = target: BRSK2 (human) (UniProt Q8IWQ3)
# [8] = target: AURKA (human) (UniProt O14965)
# [9] = target: HIPK2 (human) (UniProt Q9H2X6)
# [10] = target: MAP3K5 (human) (UniProt Q99683)
# [11] = target: PIM1 (human) (UniProt P11309)
# [12] = target: STK3 (human) (UniProt Q13188)
# [13] = target: MARK3 (human) (UniProt P27448)
# [14] = tested on: RPS6KB1 (human), P23443 [T412E]
# [15] = target: MAP3K11 (human) (UniProt Q16584)
# [16] = target: HIPK1 (human) (UniProt Q86Z02)
# [17] = target: EPHB4 (human) (UniProt P54760)
# [18] = tested on: AKT1 (human), P31749 [S473D]
# [19] = target: BRSK1 (human) (UniProt Q8TDC3)
# [20] = target: PRKCA (human) (UniProt P17252)
# [21] = target: TBK1 (human) (UniProt Q9UHD2)
# [22] = target: MAP3K1 (human) (UniProt Q13233)
# [23] = target: CaMK1 (human) (UniProt Q14012)
# [24] = target: SYK (human) (UniProt P43405)
# [25] = target: EPHA2 (human) (UniProt P29317)
# [26] = target: DYRK2 (human) (UniProt Q92630)
# [27] = target: FLT1 (human) (UniProt P17948)
# [28] = target: EPHB1 (human) (UniProt P54762)
# [29] = target: MAPK9 (human) (UniProt P45984)
# [30] = target: MAP2K1 (human) (UniProt Q02750)
# [31] = target: GCK (human) (UniProt Q12851)
# [32] = target: INSR (human) (UniProt P06213)
# [33] = target: MAPK11 (human) (UniProt Q15759)
# [34] = target: JAK2 JH1 JH2 (human) (UniProt O60674)
# [35] = target: MAPK8 (human) (UniProt P45983)
# [36] = target: MAPK10 (human) (UniProt P53779)
# MAP3K11 (human), sequence (Q16584 whole entry, looked up): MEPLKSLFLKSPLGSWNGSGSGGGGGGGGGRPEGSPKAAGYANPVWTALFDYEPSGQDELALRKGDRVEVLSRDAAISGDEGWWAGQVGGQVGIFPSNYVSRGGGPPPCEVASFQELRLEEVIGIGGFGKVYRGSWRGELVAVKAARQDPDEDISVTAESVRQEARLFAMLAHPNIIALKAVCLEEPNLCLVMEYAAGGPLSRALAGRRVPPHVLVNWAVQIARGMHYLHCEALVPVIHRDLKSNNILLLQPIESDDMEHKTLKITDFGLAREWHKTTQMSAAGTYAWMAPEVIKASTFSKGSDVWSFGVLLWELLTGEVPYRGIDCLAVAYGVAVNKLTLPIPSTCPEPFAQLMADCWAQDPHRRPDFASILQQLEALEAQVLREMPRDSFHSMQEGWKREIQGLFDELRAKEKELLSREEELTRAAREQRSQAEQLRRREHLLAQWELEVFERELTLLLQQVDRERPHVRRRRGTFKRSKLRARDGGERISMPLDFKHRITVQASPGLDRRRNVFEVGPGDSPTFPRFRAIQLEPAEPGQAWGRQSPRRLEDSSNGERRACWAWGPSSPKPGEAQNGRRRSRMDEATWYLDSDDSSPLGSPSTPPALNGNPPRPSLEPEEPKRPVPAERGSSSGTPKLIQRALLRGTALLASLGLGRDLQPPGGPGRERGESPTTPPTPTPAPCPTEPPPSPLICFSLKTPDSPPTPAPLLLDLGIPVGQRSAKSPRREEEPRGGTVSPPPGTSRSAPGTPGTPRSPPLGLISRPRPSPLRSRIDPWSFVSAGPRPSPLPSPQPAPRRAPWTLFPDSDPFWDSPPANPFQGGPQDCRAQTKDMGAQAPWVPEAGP
# MARK3 (human), sequence (P27448 whole entry, looked up): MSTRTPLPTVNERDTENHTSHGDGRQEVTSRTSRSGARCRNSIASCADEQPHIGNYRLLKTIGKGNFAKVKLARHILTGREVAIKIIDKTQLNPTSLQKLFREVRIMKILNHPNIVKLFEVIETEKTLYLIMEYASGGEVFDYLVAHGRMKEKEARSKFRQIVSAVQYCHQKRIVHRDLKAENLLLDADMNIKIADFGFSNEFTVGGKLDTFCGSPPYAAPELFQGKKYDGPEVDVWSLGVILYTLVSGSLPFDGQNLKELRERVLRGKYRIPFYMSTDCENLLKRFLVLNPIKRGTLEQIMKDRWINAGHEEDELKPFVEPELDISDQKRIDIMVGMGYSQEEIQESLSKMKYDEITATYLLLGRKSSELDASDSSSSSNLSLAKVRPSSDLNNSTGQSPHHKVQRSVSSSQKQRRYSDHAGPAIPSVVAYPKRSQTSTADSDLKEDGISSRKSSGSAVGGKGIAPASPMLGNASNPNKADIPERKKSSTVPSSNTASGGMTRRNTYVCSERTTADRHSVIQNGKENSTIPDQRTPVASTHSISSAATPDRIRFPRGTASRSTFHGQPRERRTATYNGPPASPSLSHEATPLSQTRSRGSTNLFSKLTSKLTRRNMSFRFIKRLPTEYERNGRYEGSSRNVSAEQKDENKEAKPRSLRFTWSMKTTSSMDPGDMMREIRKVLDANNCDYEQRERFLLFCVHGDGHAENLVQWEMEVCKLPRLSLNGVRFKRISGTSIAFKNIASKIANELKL
# BTK (human), sequence (Q06187 whole entry, looked up): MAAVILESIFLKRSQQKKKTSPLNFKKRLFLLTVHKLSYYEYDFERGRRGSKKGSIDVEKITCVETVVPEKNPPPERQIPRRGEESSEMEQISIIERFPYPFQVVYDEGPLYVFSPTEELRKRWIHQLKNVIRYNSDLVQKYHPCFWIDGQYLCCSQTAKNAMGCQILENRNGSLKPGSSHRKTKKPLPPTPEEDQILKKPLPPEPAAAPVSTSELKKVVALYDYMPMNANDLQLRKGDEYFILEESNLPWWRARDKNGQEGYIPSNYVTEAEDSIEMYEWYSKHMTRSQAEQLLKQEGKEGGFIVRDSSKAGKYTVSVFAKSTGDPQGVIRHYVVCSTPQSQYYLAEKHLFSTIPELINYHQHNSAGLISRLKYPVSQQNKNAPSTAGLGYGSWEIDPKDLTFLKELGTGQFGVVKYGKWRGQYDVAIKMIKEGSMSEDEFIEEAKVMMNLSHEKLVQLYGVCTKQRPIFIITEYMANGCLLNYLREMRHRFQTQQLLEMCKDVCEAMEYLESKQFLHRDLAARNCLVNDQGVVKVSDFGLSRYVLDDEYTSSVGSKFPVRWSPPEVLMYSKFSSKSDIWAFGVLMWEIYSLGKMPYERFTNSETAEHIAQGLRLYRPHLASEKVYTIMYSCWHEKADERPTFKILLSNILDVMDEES
# PIM1 (human), sequence (P11309 whole entry, looked up): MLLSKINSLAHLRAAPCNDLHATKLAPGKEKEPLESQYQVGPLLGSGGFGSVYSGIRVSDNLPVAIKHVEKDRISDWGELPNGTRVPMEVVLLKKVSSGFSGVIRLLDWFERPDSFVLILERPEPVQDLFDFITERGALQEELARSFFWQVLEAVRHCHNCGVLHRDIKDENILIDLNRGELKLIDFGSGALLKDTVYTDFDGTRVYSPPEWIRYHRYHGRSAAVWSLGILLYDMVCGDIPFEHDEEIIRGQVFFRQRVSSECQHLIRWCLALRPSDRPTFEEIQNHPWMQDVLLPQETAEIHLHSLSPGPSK
# AURKA (human), sequence (O14965 whole entry, looked up): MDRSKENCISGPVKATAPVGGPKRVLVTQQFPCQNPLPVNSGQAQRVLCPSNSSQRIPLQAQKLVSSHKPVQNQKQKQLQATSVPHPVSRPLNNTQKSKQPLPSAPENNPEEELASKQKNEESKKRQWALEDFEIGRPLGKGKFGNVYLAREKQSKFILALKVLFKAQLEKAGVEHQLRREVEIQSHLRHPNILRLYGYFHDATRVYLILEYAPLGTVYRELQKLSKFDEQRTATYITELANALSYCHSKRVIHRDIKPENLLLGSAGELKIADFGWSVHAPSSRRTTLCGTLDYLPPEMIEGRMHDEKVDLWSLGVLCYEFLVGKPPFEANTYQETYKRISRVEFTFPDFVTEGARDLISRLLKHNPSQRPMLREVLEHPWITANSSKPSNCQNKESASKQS
# BRSK2 (human), sequence (Q8IWQ3 whole entry, looked up): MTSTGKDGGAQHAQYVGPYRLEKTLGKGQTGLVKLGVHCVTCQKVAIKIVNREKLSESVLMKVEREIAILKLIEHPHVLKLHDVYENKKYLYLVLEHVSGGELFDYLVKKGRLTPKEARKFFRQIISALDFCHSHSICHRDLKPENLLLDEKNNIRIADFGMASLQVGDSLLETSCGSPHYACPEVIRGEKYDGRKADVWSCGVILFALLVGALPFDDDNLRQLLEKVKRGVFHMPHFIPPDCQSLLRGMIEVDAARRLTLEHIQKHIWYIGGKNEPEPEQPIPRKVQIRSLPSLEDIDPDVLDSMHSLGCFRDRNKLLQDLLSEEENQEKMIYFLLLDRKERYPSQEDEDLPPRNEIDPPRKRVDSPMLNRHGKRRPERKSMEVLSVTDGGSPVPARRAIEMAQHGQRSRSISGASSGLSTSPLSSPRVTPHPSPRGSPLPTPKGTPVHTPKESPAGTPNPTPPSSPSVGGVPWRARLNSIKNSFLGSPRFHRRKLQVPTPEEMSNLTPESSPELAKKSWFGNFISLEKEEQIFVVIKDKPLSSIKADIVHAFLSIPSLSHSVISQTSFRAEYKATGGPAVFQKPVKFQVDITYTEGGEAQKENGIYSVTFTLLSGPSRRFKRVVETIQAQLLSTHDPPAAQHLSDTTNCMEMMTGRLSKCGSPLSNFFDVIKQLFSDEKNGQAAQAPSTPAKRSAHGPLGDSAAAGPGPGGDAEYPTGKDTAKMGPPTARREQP
# STK3 (human), sequence (Q13188 whole entry, looked up): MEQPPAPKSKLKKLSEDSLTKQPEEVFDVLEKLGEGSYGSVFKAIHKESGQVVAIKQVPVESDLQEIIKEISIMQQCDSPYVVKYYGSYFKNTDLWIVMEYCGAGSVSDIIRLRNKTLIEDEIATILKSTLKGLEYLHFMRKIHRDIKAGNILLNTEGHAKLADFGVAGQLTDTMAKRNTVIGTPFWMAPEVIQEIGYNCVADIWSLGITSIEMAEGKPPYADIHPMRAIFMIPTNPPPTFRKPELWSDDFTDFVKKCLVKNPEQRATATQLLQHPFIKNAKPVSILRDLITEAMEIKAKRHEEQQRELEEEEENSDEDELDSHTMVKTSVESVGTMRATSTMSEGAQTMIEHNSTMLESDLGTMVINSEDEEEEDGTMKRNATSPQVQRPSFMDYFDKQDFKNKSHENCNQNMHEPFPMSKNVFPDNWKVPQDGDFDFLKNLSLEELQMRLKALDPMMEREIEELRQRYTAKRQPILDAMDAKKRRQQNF
structure (smiles),measurement,setting,value
N#Cc1c(C2CCNCC2)cc(-c2c(O)cccc2OCC2CC2)nc1N,residual activity,[1]; compound 1.0 µM,77%
same,residual activity,[1]; compound 10.0 µM,57%
same,residual activity,[2]; compound 1.0 µM,79%
same,residual activity,[2]; compound 10.0 µM,38%
same,residual activity,[3]; compound 1.0 µM,122%
same,residual activity,[3]; compound 10.0 µM,58%
same,residual activity,[4]; compound 1.0 µM,90%
same,residual activity,[4]; compound 10.0 µM,88%
same,residual activity,[5]; compound 1.0 µM,84%
same,residual activity,[5]; compound 10.0 µM,40%
same,residual activity,[6]; compound 1.0 µM,119%
same,residual activity,[6]; compound 10.0 µM,113%
same,residual activity,[7]; compound 1.0 µM,92%
same,residual activity,[7]; compound 10.0 µM,46%
same,residual activity,[8]; compound 1.0 µM,111%
same,residual activity,[8]; compound 10.0 µM,91%
same,residual activity,[9]; compound 1.0 µM,80%
same,residual activity,[9]; compound 10.0 µM,59%
same,residual activity,[10]; compound 1.0 µM,102%
same,residual activity,[10]; compound 10.0 µM,83%
same,residual activity,[11]; compound 1.0 µM,63%
same,residual activity,[11]; compound 10.0 µM,18%
same,residual activity,[12]; compound 1.0 µM,83%
same,residual activity,[12]; compound 10.0 µM,34%
same,residual activity,[13]; compound 1.0 µM,118%
same,residual activity,[13]; compound 10.0 µM,82%
same,residual activity,[14]; compound 1.0 µM,88%
same,residual activity,[14]; compound 10.0 µM,53%
same,residual activity,[15]; compound 1.0 µM,87%
same,residual activity,[15]; compound 10.0 µM,44%
same,residual activity,[16]; compound 1.0 µM,113%
same,residual activity,[16]; compound 10.0 µM,62%
same,residual activity,[17]; compound 1.0 µM,90%
same,residual activity,[17]; compound 10.0 µM,86%
same,residual activity,[18]; compound 1.0 µM,81%
same,residual activity,[18]; compound 10.0 µM,63%
same,residual activity,[19]; compound 1.0 µM,107%
same,residual activity,[19]; compound 10.0 µM,58%
same,residual activity,[20]; compound 1.0 µM,117%
same,residual activity,[20]; compound 10.0 µM,55%
same,residual activity,[21]; compound 1.0 µM,80%
same,residual activity,[21]; compound 10.0 µM,86%
same,residual activity,[22]; compound 1.0 µM,62%
same,residual activity,[22]; compound 10.0 µM,50%
same,residual activity,[23]; compound 1.0 µM,85%
same,residual activity,[23]; compound 10.0 µM,27%
same,residual activity,[24]; compound 1.0 µM,88%
same,residual activity,[24]; compound 10.0 µM,81%
same,residual activity,[25]; compound 1.0 µM,99%
same,residual activity,[25]; compound 10.0 µM,78%
same,residual activity,[26]; compound 1.0 µM,91%
same,residual activity,[26]; compound 10.0 µM,91%
same,residual activity,[27]; compound 1.0 µM,101%
same,residual activity,[27]; compound 10.0 µM,53%
same,residual activity,[28]; compound 1.0 µM,96%
same,residual activity,[28]; compound 10.0 µM,100%
same,residual activity,[29]; compound 1.0 µM,83%
same,residual activity,[29]; compound 10.0 µM,71%
same,residual activity,[30]; compound 1.0 µM,117%
same,residual activity,[30]; compound 10.0 µM,51%
same,residual activity,[31]; compound 1.0 µM,77%
same,residual activity,[31]; compound 10.0 µM,41%
same,residual activity,[32]; compound 1.0 µM,51%
same,residual activity,[32]; compound 10.0 µM,33%
same,residual activity,[33]; compound 1.0 µM,88%
same,residual activity,[33]; compound 10.0 µM,71%
same,residual activity,[34]; compound 1.0 µM,27%
same,residual activity,[34]; compound 10.0 µM,4%
same,residual activity,[35]; compound 1.0 µM,110%
same,residual activity,[35]; compound 10.0 µM,80%
same,residual activity,[36]; compound 1.0 µM,73%
same,residual activity,[36]; compound 10.0 µM,68%
Oc1ccc2ccccc2c1SSc1c(O)ccc2ccccc12,residual activity,[1]; compound 1.0 µM,103%
same,residual activity,[1]; compound 5.0 µM,102%
same,residual activity,[2]; compound 1.0 µM,59%
same,residual activity,[2]; compound 5.0 µM,34%
same,residual activity,[2]; compound 10.0 µM,60%
same,residual activity,[3]; compound 1.0 µM,28%
same,residual activity,[3]; compound 5.0 µM,19%
same,residual activity,[3]; compound 10.0 µM,27%
same,residual activity,[4]; compound 1.0 µM,86%
same,residual activity,[4]; compound 5.0 µM,46%
same,residual activity,[4]; compound 10.0 µM,102%
same,residual activity,[5]; compound 1.0 µM,54%
same,residual activity,[5]; compound 5.0 µM,33%
same,residual activity,[5]; compound 10.0 µM,74%
same,residual activity,[6]; compound 1.0 µM,137%
same,residual activity,[6]; compound 5.0 µM,169%
same,residual activity,[7]; compound 1.0 µM,39%
same,residual activity,[7]; compound 5.0 µM,14%
same,residual activity,[7]; compound 10.0 µM,48%
same,residual activity,[8]; compound 1.0 µM,2%
same,residual activity,[8]; compound 5.0 µM,2%
same,residual activity,[9]; compound 1.0 µM,24%
same,residual activity,[9]; compound 5.0 µM,15%
same,residual activity,[9]; compound 10.0 µM,73%
same,residual activity,[10]; compound 1.0 µM,129%
same,residual activity,[10]; compound 5.0 µM,154%
same,residual activity,[11]; compound 1.0 µM,37%
same,residual activity,[11]; compound 5.0 µM,15%
same,residual activity,[11]; compound 10.0 µM,46%
same,residual activity,[12]; compound 1.0 µM,5%
same,residual activity,[12]; compound 5.0 µM,6%
same,residual activity,[12]; compound 10.0 µM,51%
same,residual activity,[13]; compound 1.0 µM,81%
same,residual activity,[13]; compound 5.0 µM,63%
same,residual activity,[13]; compound 10.0 µM,69%
same,residual activity,[14]; compound 1.0 µM,56%
same,residual activity,[14]; compound 5.0 µM,14%
same,residual activity,[14]; compound 10.0 µM,3%
same,residual activity,[15]; compound 1.0 µM,9%
same,residual activity,[15]; compound 5.0 µM,2%
same,residual activity,[16]; compound 1.0 µM,52%
same,residual activity,[16]; compound 5.0 µM,48%
same,residual activity,[17]; compound 1.0 µM,109%
same,residual activity,[17]; compound 5.0 µM,119%
same,residual activity,[18]; compound 1.0 µM,87%
same,residual activity,[18]; compound 5.0 µM,62%
same,residual activity,[18]; compound 10.0 µM,85%
same,residual activity,[19]; compound 1.0 µM,29%
same,residual activity,[19]; compound 5.0 µM,24%
same,residual activity,[20]; compound 1.0 µM,91%
same,residual activity,[20]; compound 5.0 µM,48%
same,residual activity,[20]; compound 10.0 µM,65%
same,residual activity,[21]; compound 1.0 µM,59%
same,residual activity,[21]; compound 5.0 µM,22%
same,residual activity,[21]; compound 10.0 µM,77%
same,residual activity,[22]; compound 1.0 µM,64%
same,residual activity,[22]; compound 5.0 µM,38%
same,residual activity,[23]; compound 1.0 µM,6%
same,residual activity,[23]; compound 5.0 µM,3%
same,residual activity,[23]; compound 10.0 µM,7%
same,residual activity,[24]; compound 1.0 µM,77%
same,residual activity,[24]; compound 5.0 µM,12%
same,residual activity,[24]; compound 10.0 µM,92%
same,residual activity,[25]; compound 1.0 µM,91%
same,residual activity,[25]; compound 5.0 µM,75%
same,residual activity,[25]; compound 10.0 µM,97%
same,residual activity,[26]; compound 1.0 µM,68%
same,residual activity,[26]; compound 5.0 µM,45%
same,residual activity,[26]; compound 10.0 µM,64%
same,residual activity,[27]; compound 1.0 µM,6%
same,residual activity,[27]; compound 5.0 µM,4%
same,residual activity,[27]; compound 10.0 µM,47%
same,residual activity,[28]; compound 1.0 µM,118%
same,residual activity,[28]; compound 5.0 µM,102%
same,residual activity,[29]; compound 1.0 µM,94%
same,residual activity,[29]; compound 5.0 µM,80%
same,residual activity,[29]; compound 10.0 µM,94%
same,residual activity,[30]; compound 1.0 µM,85%
same,residual activity,[30]; compound 5.0 µM,18%
same,residual activity,[30]; compound 10.0 µM,96%
same,residual activity,[31]; compound 1.0 µM,30%
same,residual activity,[31]; compound 5.0 µM,2%
same,residual activity,[32]; compound 1.0 µM,110%
same,residual activity,[32]; compound 5.0 µM,93%
same,residual activity,[32]; compound 10.0 µM,113%
same,residual activity,[33]; compound 1.0 µM,114%
same,residual activity,[33]; compound 5.0 µM,112%
same,residual activity,[33]; compound 10.0 µM,117%
same,residual activity,[34]; compound 1.0 µM,72%
same,residual activity,[34]; compound 5.0 µM,34%
same,residual activity,[35]; compound 1.0 µM,99%
same,residual activity,[35]; compound 5.0 µM,76%
same,residual activity,[35]; compound 10.0 µM,89%
same,residual activity,[36]; compound 1.0 µM,106%
same,residual activity,[36]; compound 5.0 µM,77%

# Source: the kinase profiling compilation of Christmann-Franck et al. (2016)
